# Laboratory results published in PubChem BioAssay AID1963840 (Molecular Pharmacology Branch, DTP, NCI, 2024).
# System: 695427-040-R-J1-PDC complex spheroid viability
# Experiment: Anticancer human tumor 695427-040-R-J1-PDC patient-derived colon adenocarcinoma cell line growth inhibition [POLQ]
# Conditions: for IC50: curve of first compound; for viability, T/C: stronger effect = lower value
# How it was run: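 PDC + HUVEC + MSC complex spheroids; POLQ inhibitors ± partner drugs; top conc. at/near clinical Cmax, else 10 microM (SN-38 1 microM), half-log dilutions; 37 degrees C, 5% CO2.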
# [1] = second compound 0.0316 µM, first compound 0.0316 µM
# [2] = second compound 0.0316 µM, first compound 0.1 µM
# [3] = second compound 0.0316 µM, first compound 0.316 µM
# [4] = second compound 0.0316 µM, first compound 1 µM
# [5] = second compound 0.0316 µM, first compound 3.16 µM
# [6] = second compound 0.0316 µM, first compound 10 µM
# [7] = second compound 0.1 µM, first compound 0.0316 µM
# [8] = second compound 0.1 µM, first compound 0.1 µM
# [9] = second compound 0.1 µM, first compound 0.316 µM
# [10] = second compound 0.1 µM, first compound 1 µM
# [11] = second compound 0.1 µM, first compound 3.16 µM
# [12] = second compound 0.1 µM, first compound 10 µM
# [13] = second compound 0.316 µM, first compound 0.0316 µM
# [14] = second compound 0.316 µM, first compound 0.1 µM
# [15] = second compound 0.316 µM, first compound 0.316 µM
# [16] = second compound 0.316 µM, first compound 1 µM
# [17] = second compound 0.316 µM, first compound 3.16 µM
# [18] = second compound 0.316 µM, first compound 10 µM
# [19] = second compound 1 µM, first compound 0.0316 µM
# [20] = second compound 1 µM, first compound 0.1 µM
# [21] = second compound 1 µM, first compound 0.316 µM
# [22] = second compound 1 µM, first compound 1 µM
# [23] = second compound 1 µM, first compound 3.16 µM
# [24] = second compound 1 µM, first compound 10 µM
# [25] = second compound 3.16 µM, first compound 0.0316 µM
# [26] = second compound 3.16 µM, first compound 0.1 µM
# [27] = second compound 3.16 µM, first compound 0.316 µM
# [28] = second compound 3.16 µM, first compound 1 µM
# [29] = second compound 3.16 µM, first compound 3.16 µM
# [30] = second compound 3.16 µM, first compound 10 µM
# [31] = second compound 10 µM, first compound 0.0316 µM
# [32] = second compound 10 µM, first compound 0.1 µM
# [33] = second compound 10 µM, first compound 0.316 µM
# [34] = second compound 10 µM, first compound 1 µM
# [35] = second compound 10 µM, first compound 3.16 µM
# [36] = second compound 10 µM, first compound 10 µM
# 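Further: spheroids exposed to compounds for seven days.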
# 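Wherever viability, T/C is given: 100% = DMSO vehicle control viability.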
compound,measurement,setting,value
Nc1ccn(C2OC(CO)C(O)C2(F)F)c(=O)n1 (centres undefined) + Cc1cccc(N(C)C(=O)C2C(O)CCN2c2nc(C)cc(C(F)(F)F)c2C#N)c1,IC50,second compound 0.0316 µM,> 10 µM
same,IC50,second compound 0.1 µM,> 10 µM
same,IC50,second compound 0.316 µM,> 10 µM
same,IC50,second compound 1 µM,> 10 µM
same,IC50,second compound 3.16 µM,> 10 µM
same,IC50,second compound 10 µM,> 10 µM
same,"viability, T/C",[1],83%
same,"viability, T/C",[2],79.4%
same,"viability, T/C",[3],76.4%
same,"viability, T/C",[4],72.6%
same,"viability, T/C",[5],68%
same,"viability, T/C",[6],52.4%
same,"viability, T/C",[7],93.8%
same,"viability, T/C",[8],87.9%
same,"viability, T/C",[9],77.4%
same,"viability, T/C",[10],70.8%
same,"viability, T/C",[11],63.5%
same,"viability, T/C",[12],54.2%
same,"viability, T/C",[13],103%
same,"viability, T/C",[14],87.8%
same,"viability, T/C",[15],71.2%
same,"viability, T/C",[16],72.8%
same,"viability, T/C",[17],66.3%
same,"viability, T/C",[18],55.8%
same,"viability, T/C",[19],90.9%
same,"viability, T/C",[20],82.7%
same,"viability, T/C",[21],71%
same,"viability, T/C",[22],70.8%
same,"viability, T/C",[23],66.5%
same,"viability, T/C",[24],55.1%
same,"viability, T/C",[25],91.8%
same,"viability, T/C",[26],80.8%
same,"viability, T/C",[27],75.5%
same,"viability, T/C",[28],68.3%
same,"viability, T/C",[29],70.2%
same,"viability, T/C",[30],57.6%
same,"viability, T/C",[31],84.9%
same,"viability, T/C",[32],86.4%
same,"viability, T/C",[33],75.6%
same,"viability, T/C",[34],72.5%
same,"viability, T/C",[35],69.5%
same,"viability, T/C",[36],58.5%
O=C(c1cc(Cc2n[nH]c(=O)c3ccccc23)ccc1F)N1CCN(C(=O)C2CC2)CC1 + Cc1cccc(N(C)C(=O)C2C(O)CCN2c2nc(C)cc(C(F)(F)F)c2C#N)c1,IC50,second compound 0.0316 µM,> 10 µM
same,IC50,second compound 0.1 µM,> 10 µM
same,IC50,second compound 0.316 µM,> 10 µM
same,IC50,second compound 1 µM,> 10 µM
same,IC50,second compound 3.16 µM,> 10 µM
same,IC50,second compound 10 µM,> 10 µM
same,"viability, T/C",[1],107%
same,"viability, T/C",[2],98.3%
same,"viability, T/C",[3],101%
same,"viability, T/C",[4],103%
same,"viability, T/C",[5],104%
same,"viability, T/C",[6],93.9%
same,"viability, T/C",[7],111%
same,"viability, T/C",[8],101%
same,"viability, T/C",[9],97.9%
same,"viability, T/C",[10],100%
same,"viability, T/C",[11],113%
same,"viability, T/C",[12],95.3%
same,"viability, T/C",[13],109%
same,"viability, T/C",[14],101%
same,"viability, T/C",[15],99%
same,"viability, T/C",[16],93.1%
same,"viability, T/C",[17],98.4%
same,"viability, T/C",[18],96.9%
same,"viability, T/C",[19],98.5%
same,"viability, T/C",[20],94.5%
same,"viability, T/C",[21],97.6%
same,"viability, T/C",[22],92.8%
same,"viability, T/C",[23],101%
same,"viability, T/C",[24],91.2%
same,"viability, T/C",[25],103%
same,"viability, T/C",[26],94%
same,"viability, T/C",[27],102%
same,"viability, T/C",[28],91.4%
same,"viability, T/C",[29],103%
same,"viability, T/C",[30],103%
same,"viability, T/C",[31],89.4%
same,"viability, T/C",[32],88%
same,"viability, T/C",[33],97.9%
same,"viability, T/C",[34],90.4%
same,"viability, T/C",[35],92.3%
same,"viability, T/C",[36],78.9%
